# How the values were obtained:
# Type in all cases: cell-based
# [1] = tested on: HAP1 MTAP-deleted cell line; experiment: viability assay for the MTAP-deleted cell line; settings: Homo sapiens
# [2] = tested on: PRMT5 (SDMA) in HAP1 MTAP-intact cell line; experiment: SDMA in-cell western assay, HAP1 MTAP-intact cell line; settings: Homo sapiens, HAP1 MTAP-intact cell line (endogenous MTAP), read-out: Hap 1 MTAP intact IC50
# From the text: (§1) HAP1 MTAP-intact is a cell line in which endogenous levels of MTAP are expressed, and HAP1 MTAP-deleted is an MTAP-null cell line.
# [3] = tested on: PRMT5 (SDMA) in HAP1 MTAP-deleted cell line; experiment: SDMA in-cell western assay, HAP1 MTAP-deleted cell line; settings: for IC50 / IC90: Homo sapiens, SDMA in-cell western, HAP1 MTAP-deleted (MTAP-null) cell line; for Hap1 MTAP intact/deleted ratio: ratio of SDMA in-cell western IC50 in HAP1 MTAP-intact to IC50 in HAP1 MTAP-deleted cell line
# From the text: as §1
SMILES,IC50 [2],IC50 [3],IC90 [3],IC50 [1],Hap1 MTAP intact/deleted ratio [3]
"C[C@@H]1CN(C(=O)C(=O)Nc2cncc3[nH]ncc23)[C@@H](c2ccccc2)CN1C(=O)C1(C)CC1 [Compound 147, 2-((2S,5R)-5-methyl-4-(1-methylcyclopropanecarbonyl)-2-phenylpiperazin-1-yl)-2-oxo-N-(1H-pyrazolo[3,4-c]pyridin-4-yl)acetamide]",> 50 nM,< 5 nM,> 125 nM,100 to 1000 nM,A (an IC50 ratio greater than or equal to 30 fold)
"C[C@@H]1CN(C(=O)C(=O)Nc2cnc(N)c(C3CC3)c2)[C@@H](c2ccc(F)cc2)CN1C(=O)C(C)(C)C [Compound 152, N-(6-amino-5-cyclopropylpyridin-3-yl)-2-((2S,5R)-2-(4-fluorophenyl)-5-methyl-4-pivaloylpiperazin-1-yl)-2-oxoacetamide]",5 to 50 nM,< 5 nM,75 to 125 nM,< 100 nM,C (an IC50 ratio of less than 15 fold)
CCC(=O)N1C[C@H](c2ccc(F)cc2)N(C(=O)C(=O)Nc2cnc(N)c(C3CC3)c2)C[C@H]1C [Compound 153],> 50 nM,5 to 50 nM,> 125 nM,100 to 1000 nM,B (an IC50 ratio greater than or equal to 15 fold but lower than 30 fold)
"C[C@@H]1CN(C(=O)C(=O)Nc2cncc3cn[nH]c23)[C@@H](c2ccccc2)CN1C(=O)C(C)(C)C [Compound 156, 2-((2S,5R)-5-methyl-2-phenyl-4-pivaloylpiperazin-1-yl)-2-oxo-N-(1H-pyrazolo[4,3-c]pyridin-7-yl)acetamide]",5 to 50 nM,< 5 nM,< 75 nM,< 100 nM,C (an IC50 ratio of less than 15 fold)
"Cc1cc(NC(=O)C(=O)N2C[C@@H](C)N(C(=O)C(C)C)C[C@@H]2c2ccc(F)c(F)c2)cnc1N [Compound 158, N-(6-amino-5-methylpyridin-3-yl)-2-((2S,5R)-2-(3,4-difluorophenyl)-4-isobutyryl-5-methylpiperazin-1-yl)-2-oxoacetamide]",> 50 nM,5 to 50 nM,> 125 nM,100 to 1000 nM,A (an IC50 ratio greater than or equal to 30 fold)
"C[C@@H]1CN(C(=O)C(=O)Nc2cnc(N)c3c2cnn3C)[C@@H](c2ccccc2)CN1C(=O)C1(C)CC1 [Compound 169, N-(7-Amino-1-methyl-pyrazolo[3,4-c]pyridin-4-yl)-2-oxo-2-[(2S,5R)-5-methyl-4-(1-methylcyclopropanecarbonyl)-2-phenyl-piperazin-1-yl]acetamide]",5 to 50 nM,< 5 nM,< 75 nM,< 100 nM,C (an IC50 ratio of less than 15 fold)

# Continued, in another order:
IC50 [2],IC50 [3],IC90 [3],SMILES,IC50 [1],Hap1 MTAP intact/deleted ratio [3]
> 50 nM,5 to 50 nM,> 125 nM,"CCc1cc(NC(=O)C(=O)N2C[C@@H](C)N(C(=O)C3(C(F)(F)F)CC3)C[C@@H]2c2cccc(C(F)(F)F)c2)cnc1N [Compound 150, N-(6-amino-5-ethylpyridin-3-yl)-2-((2S,5R)-5-methyl-4-(1-(trifluoromethyl)cyclopropanecarbonyl)-2-(3-(trifluoromethyl)phenyl)piperazin-1-yl)-2-oxoacetamide]",< 100 nM,A (an IC50 ratio greater than or equal to 30 fold)
> 50 nM,> 50 nM,> 125 nM,"Cc1cc(NC(=O)C(=O)N2C[C@@H](C)N(CC(C)C)C[C@@H]2c2ccc(F)cc2)cnc1N [Compound 154, N-(6-amino-5-methyl-3-pyridyl)-2-[(2S,5R)-2-(4-fluorophenyl)-4-isobutyl-5-methyl-piperazin-1-yl]-2-oxo-acetamide]",> 1000 nM,C (an IC50 ratio of less than 15 fold)
> 50 nM,> 50 nM,> 125 nM,"CC(C)C(=O)N1C[C@@H](c2ccc(F)c(F)c2)N(C(=O)C(=O)Nc2cnc(N)c(C3CC3)c2)C[C@H]1C [Compound 160, N-(6-amino-5-cyclopropylpyridin-3-yl)-2-((5R)-2-(3,4-difluorophenyl)-4-isobutyryl-5-methylpiperazin-1-yl)-2-oxoacetamide]",> 1000 nM,C (an IC50 ratio of less than 15 fold)
> 50 nM,5 to 50 nM,75 to 125 nM,"C[C@@H]1CN(C(=O)C(=O)Nc2cnc(N)c3c2cnn3C)[C@@H](c2ccccc2)CN1C [Compound 164, N-(7-Amino-1-methyl-pyrazolo[3,4-c]pyridin-4-yl)-2-oxo-2-[(2S,5R)-4,5-dimethyl-2-phenyl-piperazin-1-yl]acetamide]",< 100 nM,A (an IC50 ratio greater than or equal to 30 fold)

# Reference: US20250282749A1 (Tango Therapeutics, Inc., priority 2022, published 2025)
